In ChEMBL document CHEMBL3994653, “Parallel fluorescent probe synthesis based on the large-scale preparation of BODIPY FL propionic acid” (Bioorg Med Chem Lett, 2017):

These compounds were tested against T1, Steroid hormone receptor ERR1 (Homo sapiens, UniProt P11474) (assay: Inverse agonist activity at GAL4-fused human ERRalpha expressed in HEK293 cells assessed as inhibition of transcriptional activity after 20 hrs by luciferase reporter gene assay).
T1 sequence (P11474 whole entry): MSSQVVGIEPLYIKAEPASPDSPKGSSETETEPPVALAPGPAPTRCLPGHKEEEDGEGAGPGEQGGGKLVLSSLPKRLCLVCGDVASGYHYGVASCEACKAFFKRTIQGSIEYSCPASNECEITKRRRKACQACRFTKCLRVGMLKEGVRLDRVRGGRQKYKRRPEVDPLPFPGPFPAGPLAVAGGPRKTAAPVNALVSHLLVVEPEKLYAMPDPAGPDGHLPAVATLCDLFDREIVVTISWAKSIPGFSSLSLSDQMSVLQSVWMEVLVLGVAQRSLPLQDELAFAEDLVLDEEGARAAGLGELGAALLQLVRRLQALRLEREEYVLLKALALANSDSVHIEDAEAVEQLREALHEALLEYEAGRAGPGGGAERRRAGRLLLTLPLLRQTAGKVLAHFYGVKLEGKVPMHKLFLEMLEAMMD
Assay type: cell-based

| IC50 | Compound |
| --- | --- |
| 170 nM | CC(=O)c1ccc(N2CCN(C(=O)c3cc4c(C)nn(Cc5cccc(OCc6ccc(CNC(=O)CCC7=[N+]8C(=Cc9c(C)cc(C)n9[B-]8(F)F)C=C7)cc6)c5)c4s3)C[C@H]2C)nc1 |
| 80 nM | CC(=O)c1ccc(N2CCN(C(=O)c3cc4c(C)nn(Cc5cccc(OCCCCCNC(=O)CCC6=[N+]7C(=Cc8c(C)cc(C)n8[B-]7(F)F)C=C6)c5)c4s3)C[C@H]2C)nc1 |
| 770 nM | CC(=O)c1ccc(N2CCN(C(=O)c3cc4c(C)nn(Cc5cccc(OCC6CCN(C(=O)CCC7=[N+]8C(=Cc9c(C)cc(C)n9[B-]8(F)F)C=C7)C6)c5)c4s3)C[C@H]2C)nc1 (some centres not stated) |
| 490 nM | CC(=O)c1ccc(N2CCN(C(=O)c3cc4c(C)nn(Cc5cccc(OCCCNC(=O)CCC6=[N+]7C(=Cc8c(C)cc(C)n8[B-]7(F)F)C=C6)c5)c4s3)C[C@H]2C)nc1 |
| 570 nM | CC(=O)c1ccc(N2CCN(C(=O)c3cc4c(C)nn(Cc5cccc(OCCOCCOCCOCCNC(=O)CCC6=[N+]7C(=Cc8c(C)cc(C)n8[B-]7(F)F)C=C6)c5)c4s3)C[C@H]2C)nc1 |
| 280 nM | CC(=O)c1ccc(N2CCN(C(=O)c3cc4c(C)nn(Cc5cccc(OCCOCCNC(=O)CCC6=[N+]7C(=Cc8c(C)cc(C)n8[B-]7(F)F)C=C6)c5)c4s3)C[C@H]2C)nc1 |
| 210 nM | CC(=O)c1ccc(N2CCN(C(=O)c3cc4c(C)nn(Cc5cccc(OCC6CCN(C(=O)CCC7=[N+]8C(=Cc9c(C)cc(C)n9[B-]8(F)F)C=C7)CC6)c5)c4s3)C[C@H]2C)nc1 |
| 22 nM | COCCOc1cccc(Cn2nc(C)c3cc(C(=O)N4CCN(c5ccc(C(C)=O)cn5)[C@H](C)C4)sc32)c1 |
| 170 nM | CC(=O)c1ccc(N2CCN(C(=O)c3cc4c(C)nn(Cc5cccc(OCCCCNC(=O)CCC6=[N+]7C(=Cc8c(C)cc(C)n8[B-]7(F)F)C=C6)c5)c4s3)C[C@H]2C)nc1 |
| > 1000 nM | CC(=O)c1ccc(N2CCN(C(=O)c3cc4c(C)nn(Cc5cccc(OCC6CN(C(=O)CCC7=[N+]8C(=Cc9c(C)cc(C)n9[B-]8(F)F)C=C7)CCO6)c5)c4s3)C[C@H]2C)nc1 (some centres not stated) |
| 650 nM | CC(=O)c1ccc(N2CCN(C(=O)c3cc4c(C)nn(Cc5cccc(OCCNC(=O)CCC6=[N+]7C(=Cc8c(C)cc(C)n8[B-]7(F)F)C=C6)c5)c4s3)C[C@H]2C)nc1 |
| 390 nM | CC(=O)c1ccc(N2CCN(C(=O)c3cc4c(C)nn(Cc5cccc(OCCOCCOCCNC(=O)CCC6=[N+]7C(=Cc8c(C)cc(C)n8[B-]7(F)F)C=C6)c5)c4s3)C[C@H]2C)nc1 |
